According to patent US4070458A, “Novel physiologically active peptide and its n-acyl derivatives and processes for producing thereof” (priority 1974, dated 1978):
pIC50: −log10 of the molar value. Values after ≈ are worked out from the molar mass of the structure shown. Like-named read-outs stand apart in the source and are kept apart here.

Tests used:
Stomach ulcers in rats = assay: Stress stomach ulcers in rats (method of Takagi et al.); assay type: in vivo
Method: Stomach ulcers in rats made by the method described in Takagi et al. in the Japanese Journal of Pharmacology, 18, 9-19, […], that is, placing male rats in a cage at 23° C. for 22 hours, are protected or therapetuically treated by the compounds. When 50 mg/kg of pepstatin and the compounds according to the invention were orally given 30 minutes before the stress, and the rats were sacrificed 48 hours afte the stress, the curative ratio of the ulcers was 60 - 75%. When the dose was 10 mg/kg, the inhibition percentage of the ulcers was 50 - 60%.

[1] = test system: enzyme which decomposes R-Val-Val-X-Ala-X to Val-X-Ala-X; assay: Effect of various inhibitors and metal ions on the enzyme activity; assay type: biochemical, Bacillus sphaericus ATCC 14577
pepsin (SIGMA, 2XCRY) = molecular target: T1, pepsin (SIGMA, 2XCRY) (Sus scrofa, UniProt P00791); assay: Assay of pepsin-inhibitory activity (casein digestion); assay type: biochemical; conditions: for IC50: casein, pH 2, 37° C, 30 minutes, read-out: ID50 Pepsin (converted)
T1 construct: purchased SIGMA 2XCRY
Method: Assay of pepsin-inhibitory activity in this invention was performed according to the following method: A mixture of 1 ml of 0.6 %, by weight, highly purified casein dissolved in 0.08M lactate buffer solution, pH 2.2, 0.7 ml of 0.02M KCl-HCl buffer solution, pH 2.0, and 0.2 ml of solution containing the compound sample was incubated at 37° C for three minutes. To this mixture 4 mcg of pepsin (SIGMA, 2XCRY) dissolved in 0.1 ml of 0.2M KCl-HCl buffer solution were added. The mixture was incubated at 37° C for 30 minutes. The reaction was stopped by the addition of 2.0 ml of 1.7M perchloric acid. After one hour at room temperature, the optical density (a) of the supernatant liquid was read at 280 mμ. An inhibition rate was obtained according to:
where (b) is the optical density at 280 mμ of the tube without the sample solution.
The ID50 is defined as the amount necessary for 50 % of the inhibition rate.
(§1) As an example of one of the physiological activities of the peptide and N-acyl derivatives thereof obtained according to the present invention, anti-pepsin and anti-cathepsin D activities and also acute toxicity are given in Table 8. The activities (ID50) were assayed according to the method described above and The Journal of Antibiotics 25 689 (1972). The antiprotease activities of the peptide and N-acyl derivatives thereof are extremely high.

Solubility in water = assay type: physicochemical
Text: The solubilities in water of the N-acyl derivatives according to the present invention are shown in Table 10 compared with the known N-acyl peptides having physiological activity.

Acute toxicity in mice = assay type: in vivo; conditions: mouse, in vivo, ip, abdominal injection
Method: as §1
(§2) Note: Acute toxicity was examined by administering the compounds to the
(§3) mice by abdominal injection
(§4) *This value was obtained by intravenous injection.

[2] = Solubility of the hydrolysis product in organic solvents; assay type: physicochemical
mice = assay: Acute toxicity in mice; assay type: in vivo
Method: as §1, §2, §3, §4

Cathepsin D = assay: Anti-cathepsin D activity (method of The Journal of Antibiotics 25 689 (1972)); assay type: biochemical
Method: as §1

[3] = Concentration 2 mM, Control (No Addition) 100
[4] = Concentration 10 mM, Control (No Addition) 100

T1 sequence (P00791 60-385): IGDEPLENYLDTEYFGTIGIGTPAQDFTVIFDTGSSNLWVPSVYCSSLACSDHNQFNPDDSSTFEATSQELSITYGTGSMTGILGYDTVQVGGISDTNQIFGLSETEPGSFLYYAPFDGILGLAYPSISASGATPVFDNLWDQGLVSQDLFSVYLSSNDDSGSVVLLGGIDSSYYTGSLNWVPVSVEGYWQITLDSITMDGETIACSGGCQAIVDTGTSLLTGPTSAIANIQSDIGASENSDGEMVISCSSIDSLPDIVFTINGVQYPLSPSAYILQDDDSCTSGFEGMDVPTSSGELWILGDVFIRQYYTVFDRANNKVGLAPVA

CC(C)CC(=O)N[C@H](C(=O)N[C@H](C(=O)N[C@@H](CC(C)C)[C@@H](O)CC(=O)N[C@@H](C)C(=O)N[C@@H](CC(C)C)[C@@H](O)CC(=O)O)C(C)C)C(C)C [pepstatin]
curative ratio of the ulcers (Stomach ulcers in rats; 50 mg/kg orally 30 minutes before the stress, rats sacrificed 48 hours after the stress): 60 - 75% | cure of ulcers (Stomach ulcers in rats; 50 - 200 mg/kg immediately after the stress and once daily for 4 days): rapid cure of ulcers was proven

O=C1CCC(=O)N1Br [N-Bromosuccinimide]
Inhibition of the enzyme ([1]; 2mM): Inhibition | Relative activity [1, 3]: 0

CC(C)C[C@H](NC(=O)[C@H](C)NC(=O)C[C@H](O)[C@H](CC(C)C)NC(=O)[C@@H](NC(=O)COc1ccccc1)C(C)C)[C@@H](O)CC(=O)O [Phenoxyacetyl-Val-X-Ala-X, N-phenoxyacetyl-Val-X-Ala-X]
pIC50 (pepsin (SIGMA, 2XCRY)): 7.50 | Solubility in water (Solubility in water; 20° C): 20,000 mcg/ml | LD50 (Acute toxicity in mice): 1500 mg/kg

CCCCCCCCCCCCCCCC(=O)N[C@H](C(=O)N[C@@H](CC(C)C)[C@@H](O)CC(=O)N[C@@H](C)C(=O)N[C@@H](CC(C)C)[C@@H](O)CC(=O)O)C(C)C [Palmitoyl-Val-X-Ala-X, N-palmitoyl-Val-X-Ala-X]
IC50 (pepsin (SIGMA, 2XCRY)): 607 nM

c1cnc2c(c1)ccc1cccnc12 [o-Phenanthroline]
Inhibition of the enzyme ([1]; 2mM): Inhibition | Relative activity [1, 3]: 0

[Cl][Hg][Cl] [HgCl2]
Inhibition of the enzyme ([1]; 2mM): Inhibition

CC(C)C[C@H](NC(=O)[C@H](C)NC(=O)C[C@H](O)[C@H](CC(C)C)NC(=O)[C@@H](N)C(C)C)[C@@H](O)CC(=O)O [Val-X-Ala-X, L-valyl-4-amino-3-hydroxy-6-methylheptanoyl-L-alanyl-4-amino-3-hydroxy-6-m ethylheptanoic acid]
Solubility ([2]; ether, ethyl acetate, and butyl acetate): insoluble | Solubility ([2]; methanol, ethanol, pyridine, and acetic acid): soluble | Solubility ([2]; n-propanol, n-butanol, n-amyl alcohol and acetone): slightly soluble | pIC50 (pepsin (SIGMA, 2XCRY)): 4.70 | Acute toxicity LD0 (mice; abdominal injection): ≥ 5000 mg/kg

[N-]=[N+]=[N-].[Na+] [NaN3]
Relative activity [1]: 100

CC(C)C[C@H](NC(=O)[C@H](C)NC(=O)C[C@H](O)[C@H](CC(C)C)NC(=O)[C@@H](NC(=O)C(C)C)C(C)C)[C@@H](O)CC(=O)O [Isobutyryl-Val-X-Ala-X, N-isobutyryl-Val-X-Ala-X]
IC50 (pepsin (SIGMA, 2XCRY)): 36.7 nM

[Ca+2].[Cl-].[Cl-] [Calcium Chloride]
Relative activity [1]: 110 | increase in activity [1]: 29%

CC(C)CC(=O)N[C@H](C(=O)N[C@H](C(=O)N[C@@H](CC(C)C)[C@@H](O)CC(=O)N[C@@H](C)C(=O)N[C@@H](CC(C)C)[C@@H](O)CC(=O)O)C(C)C)C(C)C [Pepstatin A]
Solubility in water (Solubility in water): 200 µg/mL (≈ 292 µM)

CC(=O)[O-].CC(=O)[O-].[Hg+2] [Mercuric Acetate]
Relative activity [1]: 0

CC(C)C[C@H](NC(=O)[C@H](C)NC(=O)C[C@H](O)[C@H](CC(C)C)NC(=O)[C@@H](NC(=O)c1ccccc1)C(C)C)[C@@H](O)CC(=O)O [Benzoyl-Val-X-Ala-X, N-benzoyl-Val-X-Ala-X]
LD50 (Acute toxicity in mice): 1350 mg/kg | ID50 Cathepsin D (Cathepsin D): 0.05 µg/mL (≈ 0.0824 µM)

[Cl][Co][Cl] [Cobalt Chloride]
Relative activity [1, 3]: 134 | Relative activity [1, 4]: 166

OCCS [β-Mercaptoethanol]
Inhibition of the enzyme ([1]; 2mM): Inhibition | Relative activity [1, 3]: 0

CC(C)C[C@H](NC(=O)[C@H](C)NC(=O)C[C@H](O)[C@H](CC(C)C)NC(=O)[C@@H](NC(=O)C(C)Oc1ccccc1)C(C)C)[C@@H](O)CC(=O)O (some centres unmarked) [Phenoxypropionyl-Val-X-Ala-X, N-2-phenoxypropionyl-Val-X-Ala-X]
IC50 (pepsin (SIGMA, 2XCRY)): 30.7 nM | Solubility in water (Solubility in water; 20° C): 15,000 mcg/ml | LD50 (Acute toxicity in mice): 2100 mg/kg

O[C@H](CS)[C@H](O)CS (racemic) [Dithiothreitol]
Inhibition of the enzyme ([1]; 2mM): Inhibition | Relative activity [1, 3]: 0

O=C(O)CI [Monoiodoacetic Acid]
Relative activity [1]: 84

O=C(O)CN(CCN(CC(=O)O)CC(=O)O)CC(=O)O [Ethylenediaminetetraacetic Acid]
Relative activity [1, 3]: 30

[Cl-].[Cl-].[Zn+2] [Zinc Chloride]
Relative activity [1, 3]: 66 | Relative activity [1, 4]: 44

CC(C)C[C@H](NC(=O)[C@H](C)NC(=O)C[C@H](O)[C@H](CC(C)C)NC(=O)[C@@H](NC(=O)C(C)O)C(C)C)[C@@H](O)CC(=O)O (some centres unmarked) [Lactoyl-Val-X-Ala-X, lactoyl-Val-X-Ala-X]
IC50 (pepsin (SIGMA, 2XCRY)): 34.8 nM | Water solubility compared with other derivatives (Solubility in water): much more water soluble | Solubility in water (Solubility in water; 20° C): ≥ 50,000 mcg/ml | Acute toxicity LD0 (mice; abdominal injection): ≥ 6000 mg/kg | Acute toxicity LD0 (mice; intravenous injection): ≥ 550 mg/kg

O=C(O)c1cc[c]([Hg][Cl])cc1 [p-Chloromercuribenzoate]
Inhibition of the enzyme [1]: Inhibition | Relative activity [1]: 2

CC(C)CC(=O)N[C@H](C(=O)N[C@@H](CC(C)C)[C@@H](O)CC(=O)N[C@@H](C)C(=O)N[C@@H](CC(C)C)[C@@H](O)CC(=O)O)C(C)C [Isovaleryl-Val-X-Ala-X, N-isovaleryl-Val-X-Ala-X]
IC50 (pepsin (SIGMA, 2XCRY)): 17 nM | Solubility in water (Solubility in water; 20° C): 5,000 mcg/ml | Acute toxicity LD0 (mice; abdominal injection): ≥ 3000 mg/kg

CCCCCC(=O)N[C@H](C(=O)N[C@H](C(=O)N[C@@H](CC(C)C)[C@@H](O)CC(=O)N[C@@H](C)C(=O)N[C@@H](CC(C)C)[C@@H](O)CC(=O)O)C(C)C)C(C)C [Pepstatin B, n-caproyl-L-valyl-L-valyl-4-amino-3-hydroxy-6-methylheptanoyl-L-alanyl-4-a mino-3-hydroxy-6-methylheptanoic acid]
Solubility in water (Solubility in water; 20° C): 100 µg/mL (≈ 143 µM)

CC(=O)[O-].CC(=O)[O-].[Pb+2] [Lead Acetate]
Relative activity [1]: 43

CC(=O)C(CC(C)C)NC(=O)[C@H](C)NC(=O)CC(O)C(CC(C)C)NC(=O)[C@@H](NC(=O)[C@@H](NC(=O)CC(C)C)C(C)C)C(C)C (stereo partly drawn) [Pepstanone A, isovaleryl-Val-Val-X-Ala-X']
Solubility in water (Solubility in water; 20° C): 50 µg/mL (≈ 78.1 µM)
